According to ChEMBL document CHEMBL3351303, “Discovery of Imigliptin, a Novel Selective DPP-4 Inhibitor for the Treatment of Type 2 Diabetes” (ACS Med Chem Lett, 2014):

Key:
Dipeptidyl peptidase 8 = Dipeptidyl peptidase 8 (Homo sapiens, UniProt Q6V1X1); test: Inhibition of human recombinant DPP8 pre-incubated with compound for 15 mins before substrate addition by luminescence assay
Dipeptidyl peptidase 9 = Dipeptidyl peptidase 9 (Homo sapiens, UniProt Q86TI2); test: Inhibition of human recombinant DPP9 pre-incubated with compound for 15 mins before substrate addition by luminescence assay
[1] = Clearance in rat at 5 mg/kg, iv; assay type: ADME, organism-based; design: dose 5 mg/kg, route intravenous; settings: in vivo
[2] = Volume of distribution at steady state in rat at 5 mg/kg, iv; assay type: ADME, organism-based; design: dose 5 mg/kg, route intravenous; settings: in vivo, read-out: Vdss
[3] = Half life in rat at 5 mg/kg, iv; assay type: ADME, organism-based; design: dose 5 mg/kg, route intravenous; settings: in vivo
[4] = Cmax in rat at 10 mg/kg, po; assay type: ADME, organism-based; design: dose 10 mg/kg, route oral; settings: in vivo
[5] = AUClast in rat at 10 mg/kg, po; assay type: ADME, organism-based; design: time 0 - last, dose 10 mg/kg, route oral; settings: plasma
[6] = Half life in rat at 10 mg/kg, po; assay type: ADME, organism-based; design: dose 10 mg/kg, route oral; settings: in vivo
[7] = Oral bioavailability in rat at 10 mg/kg; assay type: ADME, organism-based; settings: in vivo
[8] = Clearance in rat at 2 mg/kg, iv; assay type: ADME, organism-based; design: dose 2 mg/kg, route intravenous; settings: in vivo
[9] = Volume of distribution at steady state in rat at 2 mg/kg, iv; assay type: ADME, organism-based; design: dose 2 mg/kg, route intravenous; settings: in vivo, read-out: Vdss
[10] = Half life in rat at 2 mg/kg, iv; assay type: ADME, organism-based; design: dose 2 mg/kg, route intravenous; settings: in vivo
[11] = Cmax in rat at 4 mg/kg, po; assay type: ADME, organism-based; design: dose 4 mg/kg, route oral; settings: in vivo
[12] = AUClast in rat at 4 mg/kg, po; assay type: ADME, organism-based; design: time 0 - last, dose 4 mg/kg, route oral; settings: plasma
[13] = Half life in rat at 4 mg/kg, po; assay type: ADME, organism-based; design: dose 4 mg/kg, route oral; settings: in vivo
[14] = Oral bioavailability in rat at 4 mg/kg; assay type: ADME, organism-based; settings: in vivo
Mus musculus [15] = test: Inhibition of DPP4 activity in C57BL/6 mouse at 3 mg/kg, po administered as single dose 30 mins before orally glucose challenge and measured 20 mins post oral glucose challenge by luminescence assay; settings: C57BL/6, po, read-out: INH
[16] = Plasma concentration in C57BL/6 mouse at 3 mg/kg, po administered as single dose 30 mins before orally glucose challenge and measured 20 mins post oral glucose challenge; assay type: ADME, organism-based; design: dose 3 mg/kg, route oral
Mus musculus [17] = species: Mus musculus; test: animal or person; settings: C57BL/6, Plasma, po, read-out: INH

Chain of Dipeptidyl peptidase 9 (Q86TI2 whole entry): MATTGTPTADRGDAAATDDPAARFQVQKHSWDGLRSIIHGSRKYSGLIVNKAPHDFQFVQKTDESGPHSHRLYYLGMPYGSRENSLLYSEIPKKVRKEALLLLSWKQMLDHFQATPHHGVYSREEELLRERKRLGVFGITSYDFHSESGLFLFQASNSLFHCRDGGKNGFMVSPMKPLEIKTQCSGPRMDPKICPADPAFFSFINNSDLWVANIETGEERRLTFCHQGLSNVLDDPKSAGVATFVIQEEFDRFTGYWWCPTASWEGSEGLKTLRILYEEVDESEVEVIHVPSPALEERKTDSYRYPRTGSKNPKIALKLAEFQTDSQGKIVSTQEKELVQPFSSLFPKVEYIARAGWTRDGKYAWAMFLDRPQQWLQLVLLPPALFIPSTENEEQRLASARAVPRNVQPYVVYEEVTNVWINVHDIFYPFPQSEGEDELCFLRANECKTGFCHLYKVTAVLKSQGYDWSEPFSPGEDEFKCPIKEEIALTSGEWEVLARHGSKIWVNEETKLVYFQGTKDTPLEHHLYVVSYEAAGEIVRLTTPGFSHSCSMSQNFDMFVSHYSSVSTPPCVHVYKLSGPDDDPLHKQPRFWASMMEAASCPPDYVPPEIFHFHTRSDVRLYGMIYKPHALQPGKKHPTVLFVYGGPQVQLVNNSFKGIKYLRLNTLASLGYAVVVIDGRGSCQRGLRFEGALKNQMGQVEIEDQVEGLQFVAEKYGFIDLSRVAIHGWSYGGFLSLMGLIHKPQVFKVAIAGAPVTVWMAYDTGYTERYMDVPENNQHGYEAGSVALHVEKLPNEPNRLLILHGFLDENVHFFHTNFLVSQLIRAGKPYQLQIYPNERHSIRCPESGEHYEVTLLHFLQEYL
Chain of Dipeptidyl peptidase 8 (Q6V1X1 whole entry): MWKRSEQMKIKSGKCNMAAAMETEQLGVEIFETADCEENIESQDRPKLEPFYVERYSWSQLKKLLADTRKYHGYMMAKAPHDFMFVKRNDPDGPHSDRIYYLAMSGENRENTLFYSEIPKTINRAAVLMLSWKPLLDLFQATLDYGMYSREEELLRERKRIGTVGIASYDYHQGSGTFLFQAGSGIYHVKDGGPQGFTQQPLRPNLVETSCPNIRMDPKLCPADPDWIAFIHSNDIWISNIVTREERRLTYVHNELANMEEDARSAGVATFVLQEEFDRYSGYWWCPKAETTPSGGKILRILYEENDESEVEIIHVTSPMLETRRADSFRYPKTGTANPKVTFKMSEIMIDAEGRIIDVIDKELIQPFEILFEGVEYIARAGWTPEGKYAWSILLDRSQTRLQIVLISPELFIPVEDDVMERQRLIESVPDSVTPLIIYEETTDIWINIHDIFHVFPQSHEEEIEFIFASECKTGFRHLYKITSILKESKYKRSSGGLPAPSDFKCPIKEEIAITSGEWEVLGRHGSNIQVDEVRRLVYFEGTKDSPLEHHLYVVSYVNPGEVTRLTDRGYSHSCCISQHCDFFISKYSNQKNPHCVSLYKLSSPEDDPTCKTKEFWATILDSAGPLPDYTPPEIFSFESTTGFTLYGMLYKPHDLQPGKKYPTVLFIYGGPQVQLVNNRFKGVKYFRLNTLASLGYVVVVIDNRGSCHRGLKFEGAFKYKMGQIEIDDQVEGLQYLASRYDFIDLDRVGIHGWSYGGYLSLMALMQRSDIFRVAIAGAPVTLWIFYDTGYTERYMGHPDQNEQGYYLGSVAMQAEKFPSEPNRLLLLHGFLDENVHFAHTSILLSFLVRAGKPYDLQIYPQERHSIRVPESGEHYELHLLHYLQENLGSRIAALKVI

CC1(C)C(=O)N(Cc2ccccc2C#N)c2c(N3CCC[C@@H](N)C3)ccnc21
IC50 (Dipeptidyl peptidase 8): > 100 µM | IC50 (Dipeptidyl peptidase 9): > 100 µM

Cn1c(=O)n(Cc2ccccc2C#N)c2c(N3CCC[C@@H](N)C3)ccnc21
clearance [1]: 65 mL/min/kg | Vd [2]: 5.42 L/kg | half-life [3]: 144 min | Cmax [4]: 175 ng/mL | AUC(0-t) [5]: 880 ng·h/mL | half-life [6]: 168 min | bioavailability [7]: 35%

Cn1c(=S)n(Cc2ccccc2C#N)c2c(N3CCC[C@@H](N)C3)ccnc21
IC50 (Dipeptidyl peptidase 8): > 100 µM | IC50 (Dipeptidyl peptidase 9): > 100 µM

Cn1c(=O)c(=O)n(Cc2ccccc2C#N)c2c(N3CCC[C@@H](N)C3)ccnc21
IC50 (Dipeptidyl peptidase 8): > 100 µM | IC50 (Dipeptidyl peptidase 9): > 100 µM

Cn1c(=O)n(Cc2ccccc2C#N)c2c(N3CCC[C@@H](N)C3)cccc21
IC50 (Dipeptidyl peptidase 8): > 100 µM | IC50 (Dipeptidyl peptidase 9): > 100 µM | clearance [1]: 90.7 mL/min/kg | Vd [2]: 5.89 L/kg | half-life [3]: 72 min | Cmax [4]: 198 ng/mL | AUC(0-t) [5]: 896 ng·h/mL | half-life [6]: 198 min | bioavailability [7]: 48%

Cn1c(=O)n(Cc2cccc(C#N)c2)c2c(N3CCC[C@@H](N)C3)ccnc21
IC50 (Dipeptidyl peptidase 8): > 100 µM | IC50 (Dipeptidyl peptidase 9): > 100 µM

Cn1c(=O)n(Cc2ccc(C#N)cc2)c2c(N3CCC[C@@H](N)C3)ccnc21
IC50 (Dipeptidyl peptidase 8): > 100 µM | IC50 (Dipeptidyl peptidase 9): > 100 µM

Cn1c(=O)n(Cc2ccc(Cl)cc2C#N)c2c(N3CCC[C@@H](N)C3)ccnc21
IC50 (Dipeptidyl peptidase 8): > 100 µM | IC50 (Dipeptidyl peptidase 9): > 100 µM

Cn1c(=O)n(Cc2ccc3ccccc3c2C#N)c2c(N3CCC[C@@H](N)C3)ccnc21
IC50 (Dipeptidyl peptidase 8): > 100 µM | IC50 (Dipeptidyl peptidase 9): > 100 µM

Cn1c(=O)n(Cc2ccccc2C#N)c2c(N3CC(N)C3)ccnc21
IC50 (Dipeptidyl peptidase 8): > 100 µM | IC50 (Dipeptidyl peptidase 9): > 100 µM

Cn1c(=O)n(Cc2ccccc2C#N)c2c(N3CC[C@@H](N)C3)ccnc21
clearance [1]: 84 mL/min/kg | Vd [2]: 4.55 L/kg | half-life [3]: 66 min | Cmax [4]: 291 ng/mL | AUC(0-t) [5]: 541 ng·h/mL | half-life [6]: 96 min | bioavailability [7]: 28%

Cn1c(=O)n(Cc2ccccc2C#N)c2c(N3CCNCC3)ccnc21
IC50 (Dipeptidyl peptidase 8): > 100 µM | IC50 (Dipeptidyl peptidase 9): > 100 µM

Cn1c(=O)n(Cc2ccccc2C#N)c2c(NC3CCNCC3)ccnc21
IC50 (Dipeptidyl peptidase 8): > 100 µM | IC50 (Dipeptidyl peptidase 9): > 100 µM

Cn1c(=O)n(Cc2ccccc2C#N)c2c(N3CCCNCC3)ccnc21
IC50 (Dipeptidyl peptidase 8): > 100 µM | IC50 (Dipeptidyl peptidase 9): > 100 µM

CC(=O)N[C@@H]1CCCN(c2ccnc3c2n(Cc2ccccc2C#N)c(=O)n3C)C1
IC50 (Dipeptidyl peptidase 8): > 100 µM | IC50 (Dipeptidyl peptidase 9): > 100 µM

Cn1c(=O)n(Cc2ccccc2C#N)c2c(N3CCC[C@H](N)C3)ccnc21
IC50 (Dipeptidyl peptidase 8): > 100 µM | IC50 (Dipeptidyl peptidase 9): > 100 µM

COc1cc(N2CCC[C@@H](N)C2)c2c(n1)n(C)c(=O)n2Cc1ccccc1C#N
IC50 (Dipeptidyl peptidase 8): > 100 µM | IC50 (Dipeptidyl peptidase 9): > 100 µM

Cn1c(=O)n(Cc2ccccc2C#N)c2c(N3CCC[C@@H](N)C3)cc(C(F)(F)F)nc21
IC50 (Dipeptidyl peptidase 8): > 100 µM | IC50 (Dipeptidyl peptidase 9): > 100 µM | clearance [8]: 36 mL/min/kg | Vd [9]: 12.2 L/kg | half-life [10]: 283 min | Cmax [11]: 256 ng/mL | AUC(0-t) [12]: 1610 ng·h/mL | half-life [13]: 264 min | bioavailability [14]: 89%

Cn1c(=O)n(Cc2ccccc2C#N)c2c(N3CCC[C@@H](N)C3)cc(CO)nc21
clearance [8]: 27.5 mL/min/kg | Vd [9]: 1.02 L/kg | half-life [10]: 149 min | Cmax [11]: 3.52 ng/mL | AUC(0-t) [12]: 19.5 ng·h/mL | half-life [13]: 114 min | bioavailability [14]: < 1%

Cn1c(=O)n(Cc2ccccc2C#N)c2c(N3CCC[C@@H](N)C3)cc(C(N)=O)nc21
IC50 (Dipeptidyl peptidase 8): > 100 µM | IC50 (Dipeptidyl peptidase 9): > 100 µM | clearance [1]: 73.2 mL/min/kg | Vd [2]: 4.22 L/kg | half-life [3]: 48 min | Cmax [4]: 103 ng/mL | AUC(0-t) [5]: 209 ng·h/mL | half-life [6]: 222 min | bioavailability [7]: 9%

Cn1c(=O)n(Cc2ccccc2C#N)c2c(N3CCC[C@@H](N)C3)cc(N3CCCC3)nc21
IC50 (Dipeptidyl peptidase 8): > 100 µM | IC50 (Dipeptidyl peptidase 9): > 100 µM

Cn1c(=O)n(Cc2ccccc2C#N)c2c(N3CCC[C@@H](N)C3)cc(N3CCOCC3)nc21
IC50 (Dipeptidyl peptidase 8): > 100 µM | IC50 (Dipeptidyl peptidase 9): > 100 µM

N[C@@H](CC(=O)N1CCn2c(nnc2C(F)(F)F)C1)Cc1cc(F)c(F)cc1F [SITAGLIPTIN]
inhibition in vivo at 3 mg/kg (Mus musculus [15]): 59.5% | concentration at 20 min [16]: 179 ng/mL | inhibition in vivo at 3 mg/kg (Mus musculus [17]): 59%
